What was measured:
E297G BSEP [1] = target: T1, E297G BSEP (Homo sapiens, UniProt O95342, E297G/L339V); test: Transcellular transport assay of [^3H] TC across MDCKII monolayer; format: cell-based; details: 24 hours
T1 construct: expressed in transfected cells; host or cells: MDCKII cells infected with recombinant adenovirus
Protocol: (§1) MDCKII cells were dispersed on a Transwell membrane insert (pore size: […]; Falcon) of a 24-well plate, resulting in a density of 1.5×10^5 cells/insert. Two days after the culture, the confluent cells were infected with recombinant adenoviruses having the cDNAs of wild-type, E297G and D482G BSEPs, and GFP, at 50 MOI. […] After completion of the treatment for 24 hours, a transcellular transport assay was carried out (see Mita et al., Am J Physiol Gastrointest Liver Physiol 290: G550-G556, 2006).
(§2) The apparent efflux clearance across the apical membrane (PSapical) was calculated by dividing a steady rate of the transcellular transport of [^3H] TC for 2 hours by the intracellular concentration of the [^3H] TC at the termination of the experiment (2 hours later).

wild-type BSEP [2] = target: T2, wild-type BSEP (Homo sapiens, UniProt O95342, L339V); test: as above; format: cell-based; details: 24 hours
T2 construct: expressed in transfected cells; host or cells: MDCKII cells infected with recombinant adenovirus
Protocol: as §1, §2

D482G BSEP [3] = target: T3, D482G BSEP (Homo sapiens, UniProt O95342, D482G/L339V); test: as above; format: cell-based; details: 24 hours
T3 construct: expressed in transfected cells; host or cells: MDCKII cells infected with recombinant adenovirus
Protocol: as §1, §2

E297G BSEP [4] = target: T1, E297G BSEP; test: Cell surface biotinylation method, expression on the surface of MDCKII cells; format: cell-based; details: 1 mM, 24 hours
Protocol: (§3) MDCKII cells were dispersed on a 6-well plate, resulting in a density of 2.5×10^5 cells/well. After completion of the culture for 24 hours, the confluent cells were infected with recombinant adenoviruses having the cDNAs of wild-type, E297G and D482G BSEPs, and GFP, at 200 MOI. After completion of the infection, the cells were cultured for 24 hours. […] After completion of the treatment for 24 hours, the cells were biotinylated (see Hayashi et al., Hepatology, 41: 916-924, 2005).

wild-type BSEP [5] = target: T2, wild-type BSEP; test: as above; format: cell-based; details: 1 mM, 24 hours
Protocol: as §3

D482G BSEP [6] = target: T3, D482G BSEP; test: as above; format: cell-based; details: 1 mM, 24 hours
Protocol: as §3

[7] = tested on: intrinsic dipeptidyl peptidase IV (DPPIV); test: as above; format: cell-based; details: 1 mM, 24 hours
Protocol: as §3

E297G BSEP [8] = target: T1, E297G BSEP; test: Brefeldin A washing experiment, maturation of BSEP in MDCKII cells; format: cell-based; details: 1 mM 4PBA
Protocol: (§4) MDCKII cells were dispersed on a 6-well plate, resulting in a density of 2.5×10^5 cells/well. After completion of the culture for 24 hours, the confluent cells were infected with recombinant adenoviruses having the cDNAs of wild-type, E297G and D482G BSEPs, and GFP, at 200 MOI. After completion of the infection, the cells were cultured for 12 hours. Thereafter, in order to inhibit the transport of BSEP from the endoplasmic reticulum to the Golgi body, the cells were treated in the presence or absence of 5 μg/ml brefeldin A (Sigma). After completion of the treatment for 2 hours, in the presence or absence of brefeldin A, 4PBA was added to the cells to a concentration of 1 mM. At the time point of 12 hours after the 4PBA treatment, a crude membrane fraction was prepared. The obtained fraction was separated by 6% SDS-PAGE, and Western blotting was then carried out.
(§5) The promotion of a process of converting an immature BSEP existing in the endoplasmic reticulum to a mature BSEP existing on the cell surface is considered to be a post-translation mechanism that may be associated with an increase in the expression of the mature BSEP on the cell surface. In order to evaluate the effects of the 4PBA treatment on the maturation of a BSEP, the transport of the BSEP from the endoplasmic reticulum to the Golgi body was inhibited with brefeldin A (BFA), the BFA was then washed out, and the maturation rate of the BSEP on MDCKII cells was measured. BFA is an agent for inducing the accumulation of an immature BSEP existing in the endoplasmic reticulum (FIGS. 5A and 5B). The maturation rate was evaluated by washing out such BFA and then measuring an increased amount of the band density of a mature BSEP over time according to Western blotting. The band density of the mature BSEP was calculated by subtracting the band density at 0 (zero) hour from the band density at each measurement time (FIG. 5B). […] In addition, in the case of mature BSEPs, the expression levels were not changed until 3 hours after the washing out of BFA, regardless of the presence or absence of 4PBA. […] At the time point 8 hours after the washing out of BFA, the MDCKII cells treated with 4PBA were compared with the MDCKII cells that had not been treated with 4PBA. As a result, the expression level of a mature BSEP in the MDCKII cells treated with 4PBA was higher than the same expression level in the MDCKII cells that had not been treated with 4PBA.

wild-type BSEP [9] = target: T2, wild-type BSEP; test: as above; format: cell-based; details: 1 mM 4PBA
Protocol: as §4, §5

D482G BSEP [10] = target: T3, D482G BSEP; test: as above; format: cell-based; details: 1 mM 4PBA
Protocol: as §4, §5

CFTRΔF508 = CFTRΔF508 (Homo sapiens, UniProt P13569, DEL508-508); details: Non-Patent Document 2; cited from earlier work
[11] = 1 mM, PSapical minus PSapical of GFP cells
[12] = 8 hours after the washing out of BFA
[13] = immediately after the washing out of BFA (hour 0)

T3 sequence (O95342 whole entry L339V/D482G): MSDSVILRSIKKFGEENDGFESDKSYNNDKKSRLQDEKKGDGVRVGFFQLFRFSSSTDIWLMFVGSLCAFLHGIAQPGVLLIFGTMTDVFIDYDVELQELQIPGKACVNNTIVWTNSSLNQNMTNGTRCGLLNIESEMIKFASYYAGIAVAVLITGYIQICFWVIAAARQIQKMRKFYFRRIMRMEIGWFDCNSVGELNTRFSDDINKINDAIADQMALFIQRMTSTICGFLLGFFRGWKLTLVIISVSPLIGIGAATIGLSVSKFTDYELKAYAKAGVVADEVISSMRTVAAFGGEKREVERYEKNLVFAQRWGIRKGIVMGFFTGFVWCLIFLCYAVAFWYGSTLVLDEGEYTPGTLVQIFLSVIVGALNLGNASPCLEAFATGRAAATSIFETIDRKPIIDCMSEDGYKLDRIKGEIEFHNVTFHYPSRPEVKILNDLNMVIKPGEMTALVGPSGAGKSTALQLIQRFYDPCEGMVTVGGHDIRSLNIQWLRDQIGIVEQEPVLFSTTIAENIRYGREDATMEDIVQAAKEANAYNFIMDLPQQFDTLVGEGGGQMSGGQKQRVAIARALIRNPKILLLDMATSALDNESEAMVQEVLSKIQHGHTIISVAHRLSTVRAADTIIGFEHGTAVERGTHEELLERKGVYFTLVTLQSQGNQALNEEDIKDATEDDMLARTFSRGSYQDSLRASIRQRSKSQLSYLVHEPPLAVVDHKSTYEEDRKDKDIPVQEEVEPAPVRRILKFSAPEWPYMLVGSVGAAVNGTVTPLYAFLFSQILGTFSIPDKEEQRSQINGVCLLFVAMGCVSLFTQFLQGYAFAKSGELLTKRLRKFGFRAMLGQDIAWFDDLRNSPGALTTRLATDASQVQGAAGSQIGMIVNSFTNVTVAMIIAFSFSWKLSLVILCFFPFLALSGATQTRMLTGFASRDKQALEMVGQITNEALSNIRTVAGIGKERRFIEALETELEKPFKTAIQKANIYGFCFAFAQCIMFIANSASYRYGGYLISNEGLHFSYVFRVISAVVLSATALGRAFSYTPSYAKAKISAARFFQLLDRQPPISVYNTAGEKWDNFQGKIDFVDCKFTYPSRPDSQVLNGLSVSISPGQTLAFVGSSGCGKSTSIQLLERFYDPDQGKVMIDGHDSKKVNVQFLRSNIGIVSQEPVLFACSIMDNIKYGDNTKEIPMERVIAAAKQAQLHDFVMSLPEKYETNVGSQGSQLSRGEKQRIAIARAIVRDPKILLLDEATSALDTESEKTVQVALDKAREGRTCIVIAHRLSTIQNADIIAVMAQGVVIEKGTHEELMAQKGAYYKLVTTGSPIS
T2 sequence (O95342 whole entry L339V): as the sequence (O95342 whole entry L339V/D482G) above, with G482D counted along it
T1 sequence (O95342 whole entry E297G/L339V): as the sequence (O95342 whole entry L339V/D482G) above, with E297G, G482D counted along it
CFTRΔF508, sequence (P13569 with tags, fused parts or gaps DEL508-508): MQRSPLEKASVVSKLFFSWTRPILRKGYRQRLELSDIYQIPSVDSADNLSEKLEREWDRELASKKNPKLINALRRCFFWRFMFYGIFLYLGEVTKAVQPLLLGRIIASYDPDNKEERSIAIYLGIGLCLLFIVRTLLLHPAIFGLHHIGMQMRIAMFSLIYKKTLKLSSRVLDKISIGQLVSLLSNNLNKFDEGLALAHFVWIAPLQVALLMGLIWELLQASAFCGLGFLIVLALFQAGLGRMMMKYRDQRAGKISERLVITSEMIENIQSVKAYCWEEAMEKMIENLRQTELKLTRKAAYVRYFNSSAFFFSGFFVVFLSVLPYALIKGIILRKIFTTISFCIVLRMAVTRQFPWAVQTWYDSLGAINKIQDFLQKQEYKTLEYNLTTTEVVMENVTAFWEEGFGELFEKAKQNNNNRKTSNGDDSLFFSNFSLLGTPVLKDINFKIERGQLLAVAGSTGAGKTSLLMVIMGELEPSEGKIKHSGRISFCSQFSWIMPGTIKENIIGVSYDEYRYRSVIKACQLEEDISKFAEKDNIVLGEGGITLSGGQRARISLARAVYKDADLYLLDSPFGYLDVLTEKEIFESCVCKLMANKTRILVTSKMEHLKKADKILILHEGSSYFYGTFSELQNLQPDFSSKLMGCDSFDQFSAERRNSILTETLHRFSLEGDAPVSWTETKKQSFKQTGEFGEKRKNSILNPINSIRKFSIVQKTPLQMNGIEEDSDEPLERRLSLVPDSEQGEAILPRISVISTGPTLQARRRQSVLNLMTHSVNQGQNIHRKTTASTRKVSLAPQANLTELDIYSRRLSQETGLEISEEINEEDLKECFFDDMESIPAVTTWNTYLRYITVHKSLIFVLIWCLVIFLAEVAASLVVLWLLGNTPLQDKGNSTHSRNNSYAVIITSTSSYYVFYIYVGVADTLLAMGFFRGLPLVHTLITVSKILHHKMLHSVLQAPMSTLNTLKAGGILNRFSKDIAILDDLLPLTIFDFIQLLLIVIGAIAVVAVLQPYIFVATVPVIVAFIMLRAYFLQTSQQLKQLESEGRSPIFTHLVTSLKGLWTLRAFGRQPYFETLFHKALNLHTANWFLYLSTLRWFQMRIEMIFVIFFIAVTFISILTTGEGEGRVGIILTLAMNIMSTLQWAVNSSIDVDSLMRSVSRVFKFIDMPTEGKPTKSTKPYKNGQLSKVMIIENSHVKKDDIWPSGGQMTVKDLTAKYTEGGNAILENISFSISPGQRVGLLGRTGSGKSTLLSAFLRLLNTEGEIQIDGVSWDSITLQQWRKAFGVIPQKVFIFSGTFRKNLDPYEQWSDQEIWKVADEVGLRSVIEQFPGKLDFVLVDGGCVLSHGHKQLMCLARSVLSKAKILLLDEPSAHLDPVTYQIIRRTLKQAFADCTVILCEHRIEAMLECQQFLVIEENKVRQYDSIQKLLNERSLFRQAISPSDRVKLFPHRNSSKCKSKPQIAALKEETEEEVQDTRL

O=C(O)CCCc1ccccc1 [4PBA, 4-phenylbutyric acid]
efflux of [^3H] TC from the apical side to the base side (E297G BSEP [1]; 1 mM, MDCKII monolayer): did not influence
efflux of [^3H] TC from the base side to the apical side, increase (E297G BSEP [1]; 1 mM, MDCKII monolayer): 2.5 times
BSEP-dependent PSapical value (PSapical, BSEP), increase (E297G BSEP [1]; [11]): 3.0 times
PSapical value (E297G BSEP [1]; 4PBA treatment 1 mM): increased
efflux of [^3H] TC from the apical side to the base side (wild-type BSEP [2]; 1 mM, MDCKII monolayer): did not influence
efflux of [^3H] TC from the base side to the apical side, increase (wild-type BSEP [2]; 1 mM, MDCKII monolayer): 1.5 times
BSEP-dependent PSapical value (PSapical, BSEP), increase (wild-type BSEP [2]; [11]): 1.7 times
PSapical value (wild-type BSEP [2]; 4PBA treatment 1 mM): increased
efflux of [^3H] TC from the apical side to the base side (D482G BSEP [3]; 1 mM, MDCKII monolayer): did not influence
efflux of [^3H] TC from the base side to the apical side, increase (D482G BSEP [3]; 1 mM, MDCKII monolayer): 3 times
BSEP-dependent PSapical value (PSapical, BSEP), increase (D482G BSEP [3]; [11]): 2.8 times
PSapical value (D482G BSEP [3]; 4PBA treatment 1 mM): increased
expression level on the cell surface, increase (E297G BSEP [4]): 3.1 times
expression level on the cell surface, increase (wild-type BSEP [5]): 1.8 times
expression level on the cell surface, increase (D482G BSEP [6]): 2.6 times
expression of intrinsic DPPIV [7]: not influenced
expression level of mature BSEP, 4PBA-treated vs not treated cells (E297G BSEP [8]; [12]): higher
expression level of immature BSEP in the endoplasmic reticulum, with vs without 4PBA (E297G BSEP [8]; [13]): almost the same
expression level of mature BSEP, 4PBA-treated vs not treated cells (wild-type BSEP [9]; [12]): higher
expression level of immature BSEP in the endoplasmic reticulum, with vs without 4PBA (wild-type BSEP [9]; [13]): almost the same
expression level of mature BSEP, 4PBA-treated vs not treated cells (D482G BSEP [10]; [12]): higher
expression level of immature BSEP in the endoplasmic reticulum, with vs without 4PBA (D482G BSEP [10]; [13]): almost the same
expression of CFTRΔF508 on the cell membrane (CFTRΔF508): recovers its expression on the cell membrane

Reference: patent US20130197085A1, “AGENT AND METHOD FOR STABILIZING MEMBRANE PROTEIN” (priority 2007, published 2013)
